The values that follow come from patent publication US8258118B2, “4-pyridinone compounds and their use for cancer” (Bristol-Myers Squibb Company, priority 2008, dated 2012).

In one series the target is VEGFR-2 (Homo sapiens, UniProt P35968). The series is described as follows: VEGFR-2 kinase assay. It counts as biochemical. On the procedure: Incubation mixtures employed for the VEGFR-2 assay contain the synthetic substrate poly glu/tyr, (4:1), ATP, ATP-γ-^33P and buffer containing Mn^+2, DTT, BSA, and Tris buffer. The reaction is initiated by addition of enzyme and after 60 minutes at room temperature is terminated by the addition of 30% TCA to a final concentration of 15% TCA. Inhibitors are brought to 10 mM in 100% DMSO. Assays are prepared in a 96 well format in quadruplicate. Compounds are diluted 1:500 in 100% DMSO and then 1:10 in water for a final DMSO concentration of 10%. Aliquots (10 μL) are added to rows B-H in a 96 well format of 10% DMSO. The compound (20 μl) is added to row A at a concentration 5 fold higher than running conditions. Aliquots (10 μL) are transferred to each row followed by six serial dilutions with mixing, and at row F 10 μL are discarded. Row G is a control with no compound and row H is no compound and no enzyme control. Enzyme and substrate are delivered using a Tomtec Quadra station.
Plates are covered with sticky plate tops, incubated at 27° C. for 60 minutes, and then acid precipitated with TCA for 20 minutes on ice. […] Activity is determined by quantitating the incorporated radioactivity using a Packard TopCount Microplate Scintillation Counter following the addition of Microscint-20 cocktail into each dried well of the UniFilter microplates.

The next series relates to GTL-16 cells. The series is described as follows: GTL-16 gastric carcinoma proliferation assay (MTS). The series is classed as cell-based. The settings on record: Homo sapiens, 72 h, 0.5% fetal calf serum. Here is the method:
Inhibition of GTL-16 cell growth was assessed by a MTS assay using a CELLTITER 96® Aqueous Non-Radioactive Proliferation Assay kit from Promega. The kit is composed of solutions of a novel tetrazolium compound (3-(4,5-dimethylthiazol-2-yl)-5-(3-carboxymethoxyphenyl)-2-(4-sulfophenyl)-2H-tetrazolium, inner salt; MTS) and an electron coupling reagent (phenazine methosulfate, PMS). In this colormetric assay, the conversion of MTS into aqueous, soluble formazan is accomplished by dehydrogenase enzymes found in metabolically active cells. The quantity of formazan product as measured by its absorbance at 490 nm is directly proportional to the number of living cells in culture.
GTL-16 cells were inoculated into 96 well microtiter plates in 0.5% fetal calf serum and incubated at 37° C., 5% CO2, 95% air and 100% relative humidity for 24 h prior to addition of a compound. At the time of drug treatment, one plate of the cell line was processed using the above kit to represent a measurement of the cell population at the time of drug addition. Following drug treatment, the plates were incubated for an additional 72 h before processing, and measuring cell populations. Each compound was tested at 8 different concentrations in triplicate, as was the untreated control sample. Growth inhibition of 50% (IC50) is calculated by analysis of the data in Excel that uses a 4 parameter logistic equation with data fitted using the Levenburg Marquardt algorithm

Another series addresses T1, GST-Met kinase (Homo sapiens, UniProt P08581).
T1 construct: made in house
The series is described as follows: Met kinase assay. The series is classed as biochemical. Here is the method:
Incubation mixtures employed for the Met kinase assay contain a baculovirus expressed GST-Met kinase, the synthetic substrate polyGlu:Tyr, (4:1), ATP, ATP-γ-^33P and buffer containing Mn^+2, DTT, BSA, and Tris. Reactions were incubated for 60 minutes at 30° C. and stopped by the addition of cold trichloroacetic acid (TCA) to a final concentration 8%. TCA precipitates were collected onto GF/C UniFilter plates (Packard Instrument Co., Meriden, Conn.) using a FILTERMATE® universal harvester (Packard Instrument Co., Meriden, Conn.) and the filters are quantitated using a TopCount 96/384-well liquid scintillation counter (Packard Instrument Co., Meriden, Conn.). Dose response curves were generated to determine the concentration required to inhibit 50% of kinase activity (IC50). Compounds were dissolved at 10 mM in dimethyl sulfoxide (DMSO) and evaluated at ten concentrations, each in duplicate. The final concentration of DMSO in the assay is 1.7%. IC50 values were derived by non-linear regression.

Series [1] relates to U87 glioblastoma xenografts. The series is described as follows: In vivo efficacy, U87 glioblastoma xenograft model. The following applies: 25 mg/kg, dosed orally once daily for 14 days. Here is the method:
Example 1 was also tested in the U87 glioblastoma model, a Met driven tumor based on an HGF autocrine mechanism of Met activation.

The test system of series [2] is GTL-16 gastric carcinoma xenografts. In words: In vivo efficacy, GTL-16 human gastric tumor xenograft model. The following applies: for overt toxicity: administered once daily for 14 days, any of the dose levels. On the procedure: N-(4-(2-Amino-3-chloropyridin-4-yloxy)-3-fluorophenyl)-5-(4-fluorophenyl)-4-oxo-1,4-dihydropyridine-3-carboxamide (Example 1) and (3-(4-(2-amino-3-chloropyridin-4-yloxy)-3-fluorophenylcarbamoyl)-5-(4-fluorophenyl)-4-oxopyridin-1(4H)-yl)methyl dihydrogen phosphate (Example 2) were evaluated for in vivo efficacy against the GTL-16 human gastric tumor xenograft model. Example 2 is a prodrug of Example 1.
(In xenograft studies the graft and the host belong to different species.)

As a reminder, the IC50 is the concentration that gives 50% inhibition. The low end stands for greater potency, the high end for weaker potency.

T1 sequence (P08581 25-1390): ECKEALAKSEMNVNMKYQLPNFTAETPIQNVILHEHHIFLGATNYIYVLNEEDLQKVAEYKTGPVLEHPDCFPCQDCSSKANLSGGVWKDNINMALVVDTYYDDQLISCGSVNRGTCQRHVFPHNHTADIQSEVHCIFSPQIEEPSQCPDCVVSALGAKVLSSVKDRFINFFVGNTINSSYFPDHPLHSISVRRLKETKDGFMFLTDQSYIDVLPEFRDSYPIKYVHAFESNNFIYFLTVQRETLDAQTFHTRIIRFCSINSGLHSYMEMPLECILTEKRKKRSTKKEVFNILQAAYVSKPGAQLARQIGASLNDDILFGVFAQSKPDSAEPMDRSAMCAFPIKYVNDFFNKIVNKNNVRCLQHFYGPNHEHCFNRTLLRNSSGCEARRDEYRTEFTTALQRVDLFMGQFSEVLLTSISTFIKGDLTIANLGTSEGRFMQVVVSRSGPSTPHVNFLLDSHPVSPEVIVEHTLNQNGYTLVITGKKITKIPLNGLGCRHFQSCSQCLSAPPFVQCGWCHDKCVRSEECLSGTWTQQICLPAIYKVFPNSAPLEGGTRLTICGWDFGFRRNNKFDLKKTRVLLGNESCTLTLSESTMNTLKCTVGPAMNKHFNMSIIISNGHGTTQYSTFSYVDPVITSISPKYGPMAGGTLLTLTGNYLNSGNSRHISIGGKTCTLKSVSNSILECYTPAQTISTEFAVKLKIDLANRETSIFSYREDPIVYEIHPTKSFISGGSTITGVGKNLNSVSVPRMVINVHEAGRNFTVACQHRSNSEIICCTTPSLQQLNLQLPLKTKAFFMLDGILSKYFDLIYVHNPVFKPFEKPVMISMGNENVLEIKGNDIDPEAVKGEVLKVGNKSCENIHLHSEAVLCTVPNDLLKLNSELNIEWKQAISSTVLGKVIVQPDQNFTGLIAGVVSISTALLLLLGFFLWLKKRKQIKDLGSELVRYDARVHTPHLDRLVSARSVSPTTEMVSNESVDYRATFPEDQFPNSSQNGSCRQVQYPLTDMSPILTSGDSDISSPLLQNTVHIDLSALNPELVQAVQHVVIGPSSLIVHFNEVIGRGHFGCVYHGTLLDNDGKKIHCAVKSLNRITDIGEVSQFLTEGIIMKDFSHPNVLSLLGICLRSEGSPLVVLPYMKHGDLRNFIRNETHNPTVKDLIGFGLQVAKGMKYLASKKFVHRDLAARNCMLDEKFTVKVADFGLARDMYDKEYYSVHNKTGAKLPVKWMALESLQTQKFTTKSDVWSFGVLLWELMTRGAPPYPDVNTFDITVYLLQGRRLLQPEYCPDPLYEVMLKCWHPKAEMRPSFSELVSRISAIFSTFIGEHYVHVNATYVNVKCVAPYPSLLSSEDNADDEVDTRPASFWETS
Chain of VEGFR-2 (P35968 20-1356): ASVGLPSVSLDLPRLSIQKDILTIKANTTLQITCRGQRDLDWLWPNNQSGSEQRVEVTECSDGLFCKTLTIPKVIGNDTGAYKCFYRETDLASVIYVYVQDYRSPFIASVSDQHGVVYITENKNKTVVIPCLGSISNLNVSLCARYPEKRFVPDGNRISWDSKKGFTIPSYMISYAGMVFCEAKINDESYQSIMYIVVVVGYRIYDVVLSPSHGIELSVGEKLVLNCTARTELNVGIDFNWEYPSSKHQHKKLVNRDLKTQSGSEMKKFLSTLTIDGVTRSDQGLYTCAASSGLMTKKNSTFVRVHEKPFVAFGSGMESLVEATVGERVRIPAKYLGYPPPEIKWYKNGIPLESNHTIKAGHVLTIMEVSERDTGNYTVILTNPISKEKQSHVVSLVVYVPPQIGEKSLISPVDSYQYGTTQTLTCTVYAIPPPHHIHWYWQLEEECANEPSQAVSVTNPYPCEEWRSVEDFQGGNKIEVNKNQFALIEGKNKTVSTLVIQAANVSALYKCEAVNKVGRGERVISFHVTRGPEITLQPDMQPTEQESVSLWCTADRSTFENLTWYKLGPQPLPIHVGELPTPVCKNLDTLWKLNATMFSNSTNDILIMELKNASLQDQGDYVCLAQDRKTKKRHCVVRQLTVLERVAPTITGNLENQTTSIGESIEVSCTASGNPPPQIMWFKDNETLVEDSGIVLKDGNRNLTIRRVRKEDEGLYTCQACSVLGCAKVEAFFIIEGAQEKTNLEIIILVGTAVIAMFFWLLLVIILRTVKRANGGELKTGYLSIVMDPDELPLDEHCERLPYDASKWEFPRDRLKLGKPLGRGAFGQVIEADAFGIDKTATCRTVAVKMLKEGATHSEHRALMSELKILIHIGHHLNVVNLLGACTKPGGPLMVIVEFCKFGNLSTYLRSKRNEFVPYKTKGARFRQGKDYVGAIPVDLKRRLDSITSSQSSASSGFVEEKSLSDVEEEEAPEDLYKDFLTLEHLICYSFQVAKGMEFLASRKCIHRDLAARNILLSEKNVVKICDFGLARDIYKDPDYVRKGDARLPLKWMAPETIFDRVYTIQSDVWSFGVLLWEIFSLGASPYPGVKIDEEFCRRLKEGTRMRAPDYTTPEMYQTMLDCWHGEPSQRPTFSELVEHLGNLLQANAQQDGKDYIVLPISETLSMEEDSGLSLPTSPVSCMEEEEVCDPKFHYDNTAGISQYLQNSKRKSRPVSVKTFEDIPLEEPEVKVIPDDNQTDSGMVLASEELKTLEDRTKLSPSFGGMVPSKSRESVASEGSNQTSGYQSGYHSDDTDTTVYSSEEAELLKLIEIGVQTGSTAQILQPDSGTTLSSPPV

As to `Nc1nccc(Oc2ccc(NC(=O)c3c[nH]cc(-c4ccc(F)cc4)c3=O)cc2F)c1Cl` [Example 1, N-(4-(2-Amino-3-chloropyridin-4-yloxy)-3-fluorophenyl)-5-(4-fluorophenyl)-4-oxo-1,4-dihydropyridine-3-carboxamide], the IC50 worked out at 15 nM at VEGFR-2, 39 nM with GTL-16 cells and 1.7 nM against GST-Met kinase. In addition, the “antitumor activity (tumor stasis)” value was “complete tumor stasis” in series [1] and “complete tumor stasis” in series [2] (25 mg/kg of Example 1, once daily for 14 days). In addition, the overt toxicity entry in series [2] was “No overt toxicity”.

For the compound `Nc1nccc(Oc2ccc(NC(=O)c3cn(COP(=O)(O)O)cc(-c4ccc(F)cc4)c3=O)cc2F)c1Cl` [Example 2, (3-(4-(2-Amino-3-chloropyridin-4-yloxy)-3-fluorophenylcarbamoyl)-5-(4-fluorophenyl)-4-oxopyridin-1(4H)-yl)methyl dihydrogen phosphate], the “antitumor activity (tumor stasis)” value in series [2] (31.2 mg/kg of Example 2 (equimolar to 25 mg/kg Example 1), once daily for 14 days) was “complete tumor stasis”. Besides, the overt toxicity entry in series [2] is on record as “No overt toxicity”.

As for `Nc1cc(Oc2ccc(NC(=O)c3c[nH]cc(Cc4ccccc4)c3=O)cc2F)ccn1` [Compound A, N-(4-(2-Aminopyridin-4-yloxy)-3-fluorophenyl)-5-benzyl-4-oxo-1,4-dihydropyridine-3-carboxamide], the figures for the IC50 with GTL-16 cells and at GST-Met kinase were 5400 nM and 160 nM, respectively.

With `Nc1cc(Oc2ccc(NC(=O)c3cccn(-c4ccc(F)cc4)c3=O)cc2F)ccn1` [Compound B, N-(4-(2-Aminopyridin-4-yloxy)-3-fluorophenyl)-1-(4-fluorophenyl)-2-oxo-1,2-dihydropyridine-3-carboxamide], the IC50 on VEGFR-2 was 40 nM; in the series with GTL-16 cells, 170 nM; against GST-Met kinase it was 4.8 nM.
